US9771332B2, “2-thiopyrimidinones” (Pfizer Inc., priority 2015, dated 2017)
Counter-ions that a name gives are not always drawn. Like-named read-outs stand apart in the source and are kept apart here.

Experiments:
MPO = biological target: T1, MPO (Homo sapiens, UniProt P05164); assay: Human Whole Blood Assay for Irreversible Inhibition of MPO; format: cell-based; details: LPS-stimulated human whole blood, 4 hour incubation; irreversible inhibition of active MPO
T1 construct: endogenous in cells; host or cells: human whole blood leukocytes, LPS-stimulated
Experimental: To measure the inhibition of MPO activity in a biological system in the present invention, bioassays were performed with human whole blood that was collected from medication-free, human volunteers in heparin treated tubes (APP Pharmaceuticals, LLC, cat # NDC#63323-047-10, #4710). Blood was aliquoted and treated with different concentrations of the MPO inhibitor or vehicle control and co-treated with or without bacterial lipopolysaccharide (LPS, InVivogen) to stimulate blood leukocytes to simultaneously generate H2O2 (a required MPO substrate) and the release of MPO. After a 4 hour incubation at room temperature the plasma fraction was collected following a 2000×g centrifugation at 4° C.
The plasma fraction was divided in two for analysis of total MPO and active MPO. The total MPO content was determined using a standard sandwich ELISA (capture and detection antibodies: Cell Sciences, Cat# HP9048, and Cell Sciences, Cat# HM2164, clone 266-6K1) and calculated relative to a standard curve of purified MPO (myeloperoxidase, Calbiochem, cat#475911) that was prepared by dilution in the autologous donor plasma. The MPO activity is determined by capturing the total MPO from plasma using the capture step as described for the above ELISA method. […] The MPO activity of the captured material was compared to that obtained with a standard curve of purified MPO (myeloperoxidase, Calbiochem, cat#475911) that was prepared in autologous donor plasma. The percent of ‘active’ myeloperoxidase for each sample was calculated from the ratio of the active myeloperoxidase in the Amplex Red assay and the total myeloperoxidase from the ELISA for each sample. A dose response curve of the compound concentration versus MPO activity was then plotted to determine the IC50 value.

hERG potassium channel = biological target: T2, hERG potassium channel (Homo sapiens, UniProt Q12809); assay: hERG Assay (Qpatch HT automated patch clamp, hERG-transfected CHO cells); format: cell-based; details: for Therapeutic ratio hERG IC50/MPO IC50: hERG IC50 divided by MPO IC50 in human whole blood; for inhibition at 5 min, 100 µM: at 100 uM; for inhibition at 5 min, 300 µM: at 300 uM
T2 construct: host or cells: CHO cells (PrecisiON hERG-CHO Recombinant Cell Line)
Experimental: All testing was carried out in CHO cells transfected with the hERG gene purchased from Millipore (PrecisiON hERG-CHO Recombinant Cell Line CYL3038). The cell line was grown in DMEM/F-12, GlutaMAX™ with 10% fetal bovine serum, 1% Penicillin-Streptomycin, 1% Geneticin and 1% of 1M HEPES buffer solution, and maintained at approximately 37° C. in a humidified atmosphere containing 5% carbon dioxide. The cells were passaged every 3-5 days based on confluency. On the day of the experiment, 50%-80% confluent cells were harvested from a 175 cm^2 culture flask using Detachin™. After 10 minutes of exposure to Detachin™ at 37° C., the cells were centrifuged for 1 minute at 1000 RPM. The supernatant was removed and the cell pellet was reconstituted in 5-8 mL of serum free media with 2.5% of 1M HEPES, placed on the Qstirrer™, and allowed to recover. After a ˜30 minute recovery period, experiments were initiated.
hERG current was elicited and recorded using the automated Qpatch HT™ system (as described in Kutchinsky J, Friis S, Asmild M, et al. Characterization of potassium channel modulators with QPatch automated patch-clamp technology: system characteristics and performance. Assay Drug Dev Technol 2003; 1(5):685-93). The suspended cells in the Qstirrer™ were transferred to 48 individual recording chambers on a Qplate 48™ containing extracellular recording saline composed of (in mM): 138 NaCl, 5.3 KCl, 1.3 CaCl2, 0.5 MgCl2, 5.6 Glucose, 5 HEPES, 0.4 MgSO4, 0.44 KH2PO4, 4.2 NaHCO3, 0.34 Na2HPO4, and adjusted to pH 7.4±0.1 with NaOH. The intracellular recording saline was composed of (in mM): 130 KCl, 1 MgCl2, 10 HEPES, 5 Mg-ATP, and 5 EGTA, and adjusted to pH 7.2±0.1 with KOH. Membrane currents were recorded at room temperature.
hERG current was elicited from a holding potential of −80 mV with a voltage step to +30 mV for 1 second, followed by a ramp back to −80 mV at 0.55 mV/ms. Test pulses were delivered at a frequency of 0.25 Hz. Up to 4 different concentrations were studied on each cell, each exposure lasting 5 minutes or until steady-state effects were observed. In a separate set of experiments, a full concentration-response relationship and an IC50 was determined for a positive control, cisapride, (Jules C. Hancox, Mark J. McPate, Aziza El Harchi, Yi hong Zhang, The hERG potassium channel and hERG screening for drug-induced torsades de pointes, Pharmacology & Therapeutics, Volume 119, Issue 2, August 2008, Pages 118-132).
Using Sophion Qpatch Assay Software, the amplitude of the peak outward hERG current upon repolarizing ramp was measured. Current amplitude was determined by taking the average of the last 5 current peaks under each treatment condition. Percent inhibition was determined by taking the ratio of the current measured at steady state in the presence of test article (ITest article) versus the control current (Icontrol), and expressed as: % inhibition=100−(ITest article/IControl)*100. When possible, a concentration-response curve was plotted and the data were fitted using Qpatch software to determine an IC50.

[1] = fit to a concentration-response curve, read-out: hERG IC50 (determined by curve fitting)
[2] = extrapolated from single-point % inhibition, read-out: hERG IC50 (extrapolated from % activity shown)

T2 sequence (Q12809 whole entry): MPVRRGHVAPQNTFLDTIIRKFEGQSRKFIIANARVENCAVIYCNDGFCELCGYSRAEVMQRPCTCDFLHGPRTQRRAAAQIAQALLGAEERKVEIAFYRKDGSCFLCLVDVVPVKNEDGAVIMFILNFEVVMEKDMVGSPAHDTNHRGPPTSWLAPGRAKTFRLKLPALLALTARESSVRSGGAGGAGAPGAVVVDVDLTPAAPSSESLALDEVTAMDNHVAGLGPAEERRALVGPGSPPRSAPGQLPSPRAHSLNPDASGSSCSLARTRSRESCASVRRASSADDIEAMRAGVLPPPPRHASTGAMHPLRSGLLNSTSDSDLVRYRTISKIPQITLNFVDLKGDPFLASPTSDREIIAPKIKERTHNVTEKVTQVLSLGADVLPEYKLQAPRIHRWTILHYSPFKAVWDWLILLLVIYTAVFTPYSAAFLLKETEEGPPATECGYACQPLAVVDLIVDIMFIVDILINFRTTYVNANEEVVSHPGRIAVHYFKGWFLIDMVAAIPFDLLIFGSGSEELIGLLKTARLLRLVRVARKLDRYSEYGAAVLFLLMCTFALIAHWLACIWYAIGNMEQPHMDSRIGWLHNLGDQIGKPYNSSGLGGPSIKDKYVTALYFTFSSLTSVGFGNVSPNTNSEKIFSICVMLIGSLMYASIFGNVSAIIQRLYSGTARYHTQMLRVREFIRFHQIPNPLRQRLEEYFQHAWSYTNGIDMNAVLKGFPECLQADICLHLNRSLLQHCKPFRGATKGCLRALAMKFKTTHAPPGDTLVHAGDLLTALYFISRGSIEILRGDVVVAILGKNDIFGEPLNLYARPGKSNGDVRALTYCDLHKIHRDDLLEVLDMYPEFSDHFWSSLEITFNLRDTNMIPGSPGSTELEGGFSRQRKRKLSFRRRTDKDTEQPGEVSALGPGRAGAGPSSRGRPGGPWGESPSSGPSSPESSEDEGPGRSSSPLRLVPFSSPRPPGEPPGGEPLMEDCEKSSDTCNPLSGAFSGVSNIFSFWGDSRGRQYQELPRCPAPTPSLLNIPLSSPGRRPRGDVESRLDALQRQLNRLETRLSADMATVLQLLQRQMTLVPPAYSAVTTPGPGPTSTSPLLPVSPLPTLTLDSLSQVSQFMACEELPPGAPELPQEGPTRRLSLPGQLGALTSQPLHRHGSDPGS
T1 sequence (P05164 279-745 limits assumed): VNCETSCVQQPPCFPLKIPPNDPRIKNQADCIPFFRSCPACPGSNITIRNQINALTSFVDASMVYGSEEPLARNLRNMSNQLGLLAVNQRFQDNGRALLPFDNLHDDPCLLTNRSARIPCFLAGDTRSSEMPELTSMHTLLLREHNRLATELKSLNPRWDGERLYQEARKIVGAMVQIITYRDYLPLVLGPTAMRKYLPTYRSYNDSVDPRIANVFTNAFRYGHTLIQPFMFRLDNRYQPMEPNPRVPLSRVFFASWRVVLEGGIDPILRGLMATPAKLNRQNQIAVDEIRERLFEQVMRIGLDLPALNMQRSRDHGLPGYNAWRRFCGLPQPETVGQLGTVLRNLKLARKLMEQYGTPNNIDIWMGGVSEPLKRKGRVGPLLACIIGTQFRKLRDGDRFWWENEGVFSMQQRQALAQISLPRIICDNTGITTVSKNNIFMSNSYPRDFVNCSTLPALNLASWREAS
T1 sequence (P05164 165-273 limits assumed): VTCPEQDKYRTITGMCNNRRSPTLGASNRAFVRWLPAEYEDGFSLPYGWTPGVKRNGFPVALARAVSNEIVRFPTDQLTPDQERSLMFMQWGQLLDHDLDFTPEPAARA

| Structure (SMILES) | IC50 (MPO) | IC50 (hERG potassium channel; [1]) | Therapeutic ratio hERG IC50/MPO IC50 (hERG potassium channel) | inhibition at 5 min, 100 µM (hERG potassium channel; human, pH 7.4) | inhibition at 5 min, 300 µM (hERG potassium channel; human, pH 7.4) | inhibition at 5 min, 30 µM (hERG potassium channel; human, pH 7.4, at 30 uM) | IC50 (hERG potassium channel; [2]) | hERG IC50/MPO IC50 safety ratio over compound C (hERG potassium channel; 5515/41) | hERG IC50/MPO IC50 safety ratio over compound D (hERG potassium channel; 5515/162) | hERG IC50/MPO IC50 safety ratio over compound E (hERG potassium channel; 5515/260) | hERG IC50/MPO IC50 safety ratio over compound F (hERG potassium channel; 5515/900) | hERG IC50/MPO IC50 safety ratio over compound G (hERG potassium channel; 5515/1500) |
| --- | --- | --- | --- | --- | --- | --- | --- | --- | --- | --- | --- | --- |
| COc1ccc(C)cc1-c1cc(=O)[nH]c(=S)n1CCN [D] | 990 nM | 160 µM | 162 | 40% | 63% |  |  |  |  |  |  |  |
| COc1ccc(Cl)cc1-c1cc(=O)[nH]c(=S)n1CCN [C] | 800 nM | 33 µM | 41 | 75% |  | 49% |  |  |  |  |  |  |
| COc1ccc(C)cc1-c1cc(=O)[nH]c(=S)n1CC(N)=O [Compound B] | 2500 nM |  |  |  |  |  |  |  |  |  |  |  |
| COc1ccc(Cl)cc1-c1cc(=O)[nH]c(=S)n1CC(N)=O [F, 2-(6-(5-chloro-2-methoxyphenyl)-4-oxo-2-thioxo-3,4-dihydropyrimidin-1(2H)-yl)acetamide] |  |  |  |  | 15% |  | 1700 µM |  |  |  |  |  |
| COc1ccc(-c2cc(=O)[nH]c(=S)n2CC(=O)NCCN)c(OC)c1 [G, N-(2-aminoethyl)-2-[6-(2,4-dimethoxyphenyl)-4-oxo-2-thioxo-3,4-dihydropyrimidin-1(2H)-yl]acetamide] | 600 nM |  | 1500 |  | 25% |  | 900 µM |  |  |  |  |  |
| Cc1ccc(OCCO)c(-c2cc(=O)[nH]c(=S)n2CCN)c1 [Compound A, 1-(2-Aminoethyl)-6-(2-(2-hydroxyethoxy)-5-methylphenyl)-2-thioxo-2,3-dihydropyrimidin-4(1H)-one hydrochloride] | 550 nM |  | 5515 |  | 9% |  | 3030 µM | 135 times | 34 times | 21 times | 6.1 times | 3.7 times |
| NCCn1c(-c2cc(Cl)ccc2OCCO)cc(=O)[nH]c1=S [Compound E] | 1300 nM |  | 260 | 23% |  |  | 335 µM |  |  |  |  |  |
